Usually IC50 stands for the concentration at which inhibition is half-maximal.

*1 amine or outer side, *2 acyl side, *3 side chain or, on linkers, in order; H or OH if unused. Where a SMILES comes first, the peptide text is derived from it. [ ]: non-standard residue; d: D form. The star is where a group is joined. ξ: configuration not given here. Fluorescein(5-NHCS) = O=C1OC2(c3ccc(O)cc3Oc3cc(O)ccc32)c2cc(NC(=S)*)ccc21; X19 = O=C([C@@H]1C[C@@H](O/N=C\c2ccc([N+](=O)[O-])cc2)CN1[*:1])[*:2]; X33 = CC(/C=N\O[C@H]1C[C@@H](C(=O)[*:2])N([*:1])C1)=C\c1ccccc1; X17 = COc1ccc(/C=N\O[C@@H]2C[C@@H](C(=O)[*:2])N([*:1])C2)cc1O; X36 = CC(/C=N\O[C@H]1CCN([*:1])[C@@H]1C(=O)[*:2])=C\c1ccccc1; X43 = COc1ccc(/C=N\O[C@H]2CCN([*:1])[C@@H]2C(=O)[*:2])cc1OC; X16 = COc1ccc(/C=N\O[C@H]2CCN([*:1])[C@@H]2C(=O)[*:2])cc1O; X14 = CCCCCCCC/C=N\O[C@@H]1C[C@@H](C(=O)[*:2])N([*:1])C1; X46 = O=C([C@@H]1C[C@H](O/N=C\CCc2ccccc2)CN1[*:1])[*:2]; X4 = O=C([C@@H]1[C@@H](O/N=C\c2ccncc2)CCN1[*:1])[*:2]; X44 = O=C([C@@H]1[C@@H](O/N=C\c2ccoc2)CCN1[*:1])[*:2]; X35 = O=C([C@@H]1C[C@H](O/N=C\c2ccoc2)CN1[*:1])[*:2]; X3 = CCCCC/C=N\O[C@H]1CCN([*:1])[C@@H]1C(=O)[*:2]; ξPip = O=C(O)C1CCCCN1; Ava = NCCCCC(=O)O

The target in the experiment is T1, Tumor susceptibility gene 101 protein (Homo sapiens, UniProt Q99816).
T1 sequence (Q99816 whole entry): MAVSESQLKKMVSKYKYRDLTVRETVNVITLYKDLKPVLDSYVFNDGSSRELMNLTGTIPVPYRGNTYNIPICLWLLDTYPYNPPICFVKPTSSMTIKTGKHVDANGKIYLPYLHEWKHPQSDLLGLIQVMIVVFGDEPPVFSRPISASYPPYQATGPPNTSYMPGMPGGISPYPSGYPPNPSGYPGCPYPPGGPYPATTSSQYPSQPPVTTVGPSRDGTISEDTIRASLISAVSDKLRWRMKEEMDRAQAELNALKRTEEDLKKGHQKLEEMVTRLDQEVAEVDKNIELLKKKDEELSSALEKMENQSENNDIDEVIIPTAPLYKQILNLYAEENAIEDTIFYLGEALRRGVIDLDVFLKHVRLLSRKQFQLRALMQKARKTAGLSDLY
As to the kind of experiment: Binding affinity to Tsg101.
Molecule `C[C@H](NC(=O)[C@@H](NC(=O)[C@@H]1CCCN1C(=O)[C@H](CCC(=O)O)NC(=O)[C@@H]1CCCN1C(=O)CCCCNC(=S)Nc1ccc2c(c1)C1(OC2=O)c2ccc(O)cc2Oc2cc(O)ccc21)[C@@H](C)O)C(=O)N1CCCCC1C(=O)N1C[C@@H](O/N=C\CCc2ccccc2)C[C@H]1C(=O)N[C@@H](CCC(=O)O)C(=O)N[C@@H](CCC(=O)O)C(N)=O` (some centres not stated) ({Fluorescein(5-NHCS)-Ava}-PEPTA[ξPip][X46]EE-NH2) displayed an IC50 of 83 µM. Molecule `C[C@H](NC(=O)[C@@H](NC(=O)[C@@H]1CCCN1C(=O)[C@H](CCC(=O)O)NC(=O)[C@@H]1CCCN1C(=O)CCCCNC(=S)Nc1ccc2c(c1)C1(OC2=O)c2ccc(O)cc2Oc2cc(O)ccc21)[C@@H](C)O)C(=O)N1CCCCC1C(=O)N1C[C@@H](O/N=C\c2ccoc2)C[C@H]1C(=O)N[C@@H](CCC(=O)O)C(=O)N[C@@H](CCC(=O)O)C(N)=O` (some centres not stated) ({Fluorescein(5-NHCS)-Ava}-PEPTA[ξPip][X35]EE-NH2) yielded an IC50 of 48 µM. This IC50 lies about 1.7-fold lower than the previous one. `CC(/C=N\O[C@H]1C[C@@H](C(=O)N[C@@H](CCC(=O)O)C(=O)N[C@@H](CCC(=O)O)C(N)=O)N(C(=O)C2CCCCN2C(=O)[C@H](C)NC(=O)[C@@H](NC(=O)[C@@H]2CCCN2C(=O)[C@H](CCC(=O)O)NC(=O)[C@@H]2CCCN2C(=O)CCCCNC(=S)Nc2ccc3c(c2)C2(OC3=O)c3ccc(O)cc3Oc3cc(O)ccc32)[C@@H](C)O)C1)=C\c1ccccc1` (some centres not stated) ({Fluorescein(5-NHCS)-Ava}-PEPTA[ξPip][X33]EE-NH2) registered an IC50 of 58 µM. Take `C[C@H](NC(=O)[C@@H](NC(=O)[C@@H]1CCCN1C(=O)[C@H](CCC(=O)O)NC(=O)[C@@H]1CCCN1C(=O)CCCCNC(=S)Nc1ccc2c(c1)C1(OC2=O)c2ccc(O)cc2Oc2cc(O)ccc21)[C@@H](C)O)C(=O)N1CCCCC1C(=O)N1CC[C@H](O/N=C\c2ccncc2)[C@H]1C(=O)N[C@@H](CCC(=O)O)C(=O)N[C@@H](CCC(=O)O)C(N)=O` (some centres not stated) ({Fluorescein(5-NHCS)-Ava}-PEPTA[ξPip][X4]EE-NH2): the IC50 worked out at 22 µM. Molecule `COc1ccc(/C=N\O[C@H]2CCN(C(=O)C3CCCCN3C(=O)[C@H](C)NC(=O)[C@@H](NC(=O)[C@@H]3CCCN3C(=O)[C@H](CCC(=O)O)NC(=O)[C@@H]3CCCN3C(=O)CCCCNC(=S)Nc3ccc4c(c3)C3(OC4=O)c4ccc(O)cc4Oc4cc(O)ccc43)[C@@H](C)O)[C@@H]2C(=O)N[C@@H](CCC(=O)O)C(=O)N[C@@H](CCC(=O)O)C(N)=O)cc1O` (some centres not stated) ({Fluorescein(5-NHCS)-Ava}-PEPTA[ξPip][X16]EE-NH2) yielded an IC50 of 13 µM. `CC(/C=N\O[C@H]1CCN(C(=O)C2CCCCN2C(=O)[C@H](C)NC(=O)[C@@H](NC(=O)[C@@H]2CCCN2C(=O)[C@H](CCC(=O)O)NC(=O)[C@@H]2CCCN2C(=O)CCCCNC(=S)Nc2ccc3c(c2)C2(OC3=O)c3ccc(O)cc3Oc3cc(O)ccc32)[C@@H](C)O)[C@@H]1C(=O)N[C@@H](CCC(=O)O)C(=O)N[C@@H](CCC(=O)O)C(N)=O)=C\c1ccccc1` (some centres not stated) ({Fluorescein(5-NHCS)-Ava}-PEPTA[ξPip][X36]EE-NH2) came in with a half-inhibitory concentration (IC50) of 12 µM. Molecule `C[C@H](NC(=O)[C@@H](NC(=O)[C@@H]1CCCN1C(=O)[C@H](CCC(=O)O)NC(=O)[C@@H]1CCCN1C(=O)CCCCNC(=S)Nc1ccc2c(c1)C1(OC2=O)c2ccc(O)cc2Oc2cc(O)ccc21)[C@@H](C)O)C(=O)N1CCCCC1C(=O)N1C[C@H](O/N=C\c2ccc([N+](=O)[O-])cc2)C[C@H]1C(=O)N[C@@H](CCC(=O)O)C(=O)N[C@@H](CCC(=O)O)C(N)=O` (some centres not stated) ({Fluorescein(5-NHCS)-Ava}-PEPTA[ξPip][X19]EE-NH2) had a half-maximal inhibitory concentration (IC50) of 21 µM. `COc1ccc(/C=N\O[C@@H]2C[C@@H](C(=O)N[C@@H](CCC(=O)O)C(=O)N[C@@H](CCC(=O)O)C(N)=O)N(C(=O)C3CCCCN3C(=O)[C@H](C)NC(=O)[C@@H](NC(=O)[C@@H]3CCCN3C(=O)[C@H](CCC(=O)O)NC(=O)[C@@H]3CCCN3C(=O)CCCCNC(=S)Nc3ccc4c(c3)C3(OC4=O)c4ccc(O)cc4Oc4cc(O)ccc43)[C@@H](C)O)C2)cc1O` (some centres not stated) ({Fluorescein(5-NHCS)-Ava}-PEPTA[ξPip][X17]EE-NH2): the half-maximal inhibitory concentration (IC50) is 23 µM.

For the molecule `C[C@H](NC(=O)[C@@H](NC(=O)[C@@H]1CCCN1C(=O)[C@H](CCC(=O)O)NC(=O)[C@@H]1CCCN1C(=O)CCCCNC(=S)Nc1ccc2c(c1)C1(OC2=O)c2ccc(O)cc2Oc2cc(O)ccc21)[C@@H](C)O)C(=O)N1CCCCC1C(=O)N1CC[C@H](O/N=C\c2ccoc2)[C@H]1C(=O)N[C@@H](CCC(=O)O)C(=O)N[C@@H](CCC(=O)O)C(N)=O` (some centres not stated) ({Fluorescein(5-NHCS)-Ava}-PEPTA[ξPip][X44]EE-NH2), the IC50 is 20 µM. Take `CCCCCCCC/C=N\O[C@@H]1C[C@@H](C(=O)N[C@@H](CCC(=O)O)C(=O)N[C@@H](CCC(=O)O)C(N)=O)N(C(=O)C2CCCCN2C(=O)[C@H](C)NC(=O)[C@@H](NC(=O)[C@@H]2CCCN2C(=O)[C@H](CCC(=O)O)NC(=O)[C@@H]2CCCN2C(=O)CCCCNC(=S)Nc2ccc3c(c2)C2(OC3=O)c3ccc(O)cc3Oc3cc(O)ccc32)[C@@H](C)O)C1` (some centres not stated) ({Fluorescein(5-NHCS)-Ava}-PEPTA[ξPip][X14]EE-NH2): the IC50 was 54 µM. Regarding `CCCCC/C=N\O[C@H]1CCN(C(=O)C2CCCCN2C(=O)[C@H](C)NC(=O)[C@@H](NC(=O)[C@@H]2CCCN2C(=O)[C@H](CCC(=O)O)NC(=O)[C@@H]2CCCN2C(=O)CCCCNC(=S)Nc2ccc3c(c2)C2(OC3=O)c3ccc(O)cc3Oc3cc(O)ccc32)[C@@H](C)O)[C@@H]1C(=O)N[C@@H](CCC(=O)O)C(=O)N[C@@H](CCC(=O)O)C(N)=O` (some centres not stated) ({Fluorescein(5-NHCS)-Ava}-PEPTA[ξPip][X3]EE-NH2), the IC50 is 23 µM.

As for `COc1ccc(/C=N\O[C@H]2CCN(C(=O)C3CCCCN3C(=O)[C@H](C)NC(=O)[C@@H](NC(=O)[C@@H]3CCCN3C(=O)[C@H](CCC(=O)O)NC(=O)[C@@H]3CCCN3C(=O)CCCCNC(=S)Nc3ccc4c(c3)C3(OC4=O)c4ccc(O)cc4Oc4cc(O)ccc43)[C@@H](C)O)[C@@H]2C(=O)N[C@@H](CCC(=O)O)C(=O)N[C@@H](CCC(=O)O)C(N)=O)cc1OC` (some centres not stated) ({Fluorescein(5-NHCS)-Ava}-PEPTA[ξPip][X43]EE-NH2), the IC50 was 22 µM.
